Laboratory results published in ChEMBL document CHEMBL1147590, “Synthesis and antitumor activity of s-tetrazine derivatives” (Bioorg Med Chem Lett, 2004).

Legend:
A549 [1] = test: In vitro rate of inhibition of A-549 tumor cell growth at 10E-4 mol/L; assay type: functional, Homo sapiens; conditions: at 100 µM
A549 [2] = test: In vitro rate of inhibition of A-549 tumor cell growth at 10E-5 mol/L; assay type: functional, Homo sapiens; conditions: at 10 µM
A549 [3] = test: In vitro rate of inhibition of A-549 tumor cell growth at 10E-7 mol/L; assay type: functional, Homo sapiens; conditions: at 0.1 µM
A549 [4] = test: In vitro rate of inhibition of A-549 tumor cell growth at 10E-8 mol/L; assay type: functional, Homo sapiens; conditions: at 0.01 µM
P388 [5] = test: In vitro rate of inhibition of P388 tumor cell growth at 10E-5 mol/L; assay type: functional, Mus musculus; conditions: at 10 µM
P388 [6] = test: In vitro rate of inhibition of P388 tumor cell growth at 10E-6 mol/L; assay type: functional, Mus musculus; conditions: at 1 µM
P388 [7] = test: In vitro rate of inhibition of P388 tumor cell growth at 10E-7 mol/L; assay type: functional, Mus musculus; conditions: at 0.1 µM
P388 [8] = test: In vitro rate of inhibition of P388 tumor cell growth at 10E-8 mol/L; assay type: functional, Mus musculus; conditions: at 0.01 µM
A549 [9] = test: In vitro rate of inhibition of A-549 tumor cell growth at 10E-6 mol/L; assay type: functional, Homo sapiens; conditions: at 1 µM
P388 [10] = test: In vitro rate of inhibition of P388 tumor cell growth at 10E-4 mol/L; assay type: functional, Mus musculus; conditions: at 100 µM

| SMILES | Rate of inhibition (A549 [1]) [%] | Rate of inhibition (A549 [2]) [%] | Rate of inhibition (A549 [3]) [%] | Rate of inhibition (A549 [4]) [%] | Rate of inhibition (P388 [5]) [%] | Rate of inhibition (P388 [6]) [%] | Rate of inhibition (P388 [7]) [%] | Rate of inhibition (P388 [8]) [%] | Rate of inhibition (A549 [9]) [%] | Rate of inhibition (P388 [10]) [%] |
| --- | --- | --- | --- | --- | --- | --- | --- | --- | --- | --- |
| COC(=O)N1C(c2ccccc2)=NN=C(c2ccccc2)N1C(=O)OC | 35.5 | 0 | 0 | 0 | 14.6 | 11.6 | 5.2 | 3.3 | 0 | 50.5 |
| c1ccc(C2=NNC(c3ccccc3)=NN2)cc1 | 87.6 | 69 | 0 | – | 67.2 | 5.4 | 10.2 | – | 0 | 55.8 |
| CC1=NN(C(=O)Nc2ccccc2C)C(C)=NN1C(=O)Nc1ccccc1C | 80 | 0 | 0 | 0 | 18.8 | 1.6 | 0 | 0 | 0 | 82.8 |
| COc1ccc(NC(=O)N2N=C(C)N(C(=O)Nc3ccc(OC)cc3)N=C2C)cc1 | 24.2 | 0.9 | 0 | 0 | 36.5 | 14.3 | 6.3 | 0 | 0 | 73 |
| COC(=O)N1N=C(C)N=NC1C (configuration not stated) | 75.9 | 19.6 | 0 | 0 | 7.8 | 0 | 11.3 | 5.7 | 0 | 60.5 |
| CCC1NN(C(C)=O)C(CC)NN1C(C)=O (configuration not stated) | 47.5 | 9.7 | 2.9 | 0 | 0 | 0 | 0 | 0 | 10.1 | 38.9 |
| CCCC1=NN(C(=O)OC2CCCCC2)C(CCC)N=N1 (configuration not stated) | 25.8 | 5.2 | 18.1 | 1 | 33.6 | 38.3 | 44.8 | 4.5 | 23.5 | 44 |
| CC1=NN(C(=O)Nc2cc(Cl)cc(Cl)c2)C(C)=NN1C(=O)Nc1cc(Cl)cc(Cl)c1 | 42 | 0 | 0 | 0 | 5.9 | 1.9 | 0 | 0 | 0 | 30.6 |
| CC1=NN(C(=O)NCc2ccccc2)C(C)=NN1C(=O)NCc1ccccc1 | 64.4 | 82.3 | 32 | 14.1 | 57.5 | 50.3 | 22 | 19.6 | 81.8 | 92.8 |
| Cc1cccnc1-c1nnc(-c2ncccc2C)nn1 | 0 | 0 | – | – | 3.6 | – | – | – | – | 2.6 |
| CCCCCOC(=O)N1N=C(C)N=NC1C (configuration not stated) | 22.8 | 4.6 | 1.1 | 7.6 | 19.8 | 7.3 | 0 | 0 | 0 | 42.6 |
| c1ccc(Cc2nnc(Cc3ccccc3)nn2)cc1 | 66.8 | 61.7 | 0 | 0 | 15.6 | 18.5 | 4.6 | 0 | 4.3 | 51 |
| CC1=NN(C(=O)Nc2cccc3ccccc23)C(C)=NN1C(=O)Nc1cccc2ccccc12 | 56.6 | 16.9 | 10 | 4.4 | 6.3 | 0 | 0 | 0 | 9.1 | 60.5 |
| CC1=NN(C(=O)Nc2cc(C)cc(C)c2)C(C)=NN1C(=O)Nc1cc(C)cc(C)c1 | 86.4 | 73.9 | 0 | 0 | 91.7 | 31.5 | 0 | 0 | 37.5 | 90.7 |
| CC1=NN(C(=O)Nc2ccc(Cl)cc2)C(C)=NN1C(=O)Nc1ccc(Cl)cc1 | 53.4 | 14.8 | 7.4 | 0 | 14.8 | 1.9 | 7.4 | 0 | 1.9 | 50 |
| CCCOC(=O)N1N=C(C)N=NC1C (configuration not stated) | 16.7 | 11 | 0 | 0 | 13.5 | 9 | 8.7 | 5.2 | 0 | 34.8 |
| CC(C)C(=O)N1N=C(c2ccccc2)NN=C1c1ccccc1 | 83.8 | 46.6 | 29.6 | 29.5 | 61.1 | 52 | 24.9 | 46.9 | 38.7 | 82.5 |
| CC1=NN(C(=O)NC2CCCCC2)C(C)=NN1C(=O)NC1CCCCC1 | 58.9 | 3.5 | 0 | 0 | 0 | 0 | 0 | 0 | 0 | 72.6 |
| CC1=NN(C(=O)Nc2cccc(N(C)C)c2)C(C)=NN1C(=O)Nc1cccc(N(C)C)c1 | 93.2 | 83 | 73.9 | 69.3 | 84.3 | 89.8 | 88.9 | 90.7 | 80.7 | 95.4 |
| CC1=NN(C(=O)Nc2cccc(C(F)(F)F)c2)C(C)=NN1C(=O)Nc1cccc(C(F)(F)F)c1 | 39.3 | 10.7 | 10.7 | 16.1 | 28.6 | 9.5 | 0 | 0 | 8.9 | 73 |
| CCCC1=NN(C(=O)OCC)C(CCC)N=N1 (configuration not stated) | 12.5 | 0 | 0 | 0 | 15 | 2.2 | 5 | 3.6 | 0 | 35.4 |
| CC1=NN(C(=O)Nc2cccc([N+](=O)[O-])c2)C(C)=NN1C(=O)Nc1cccc([N+](=O)[O-])c1 | 0.9 | 0 | 0 | 0 | 58.7 | 38.1 | 20.6 | 22.2 | 0 | 69.8 |
| CC1=NN(C(=O)OCc2ccccc2)C(C)N=N1 (configuration not stated) | 0 | 0 | 0 | 0 | 3 | 2 | 2.3 | 1 | 0 | 24.1 |
| COc1ccccc1C(=O)N1N=C(c2ccccc2)NN=C1c1ccccc1 | 90.9 | 72.6 | 0 | 0 | 25.2 | 7.4 | 0.8 | 0 | 4.7 | 64.5 |
| C1=CN(c2nnc(N3C=CN=CC3)nn2)CC=N1 | 60.6 | 3.9 | 0 | 0 | 0 | 0 | 0 | 0 | 0 | 69.9 |
